What all share (format): binding
The target of test [1] is T1, HUWE1 WWE domain (Homo sapiens, UniProt Q7Z6Z7).
T1 construct: HUWE1 (Uniprot ID: Q7Z6Z7, residues 1611–1700); His6-TEV site (N, cleaved yes); made in house; host or cells: E. coli BL21 (DE3) pRARE2
T1 sequence (Q7Z6Z7 1611-1700): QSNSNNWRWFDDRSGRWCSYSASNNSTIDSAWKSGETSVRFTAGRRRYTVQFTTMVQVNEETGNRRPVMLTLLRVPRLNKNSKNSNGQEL
The test is described as follows: 19F NMR displacement assay with 2F-ATP (1) reporter, HUWE1. To be noted: 100 µM reporter, 0.5 µM protein, competitor up to 1 mM.

Test [2] has as its target T1, HUWE1 WWE domain. The test is described as follows: 15N-HSQC NMR Kd titration, HUWE1 WWE domain. To be noted: 15N-HSQC-NMR titration, mean of selected cross peaks ± SD. The source says:
(§1) Protein-observed NMR using isotopically labeled proteins has emerged as one of the most sensitive and widely employed methods for fragment-based screening. Our objective was to generate ^15N-labeled proteins of WWE domain family members, thereby enabling ^15N-HSQC NMR studies. This approach provides a protein-based fragment screening assay to identify and orthogonally validate binders for the WWE domain family proteins. We conducted NMR-based Kd determination assays for HUWE1, DTX1, RNF146, TRIP12, and DTX2 (Fig. 2c–f, Fig. S3). The small size of the WWE domain constructs (10–20 kDa) yielded NMR spectra with well-resolved individual peaks when analyzed on a 600 MHz spectrometer. This facilitated the determination of Kd values for ligands in the fast-exchange regime by monitoring chemical shift perturbations in the ligand titration. […] The adenosine-based ligands were titrated in the range of 62.5 µM to 2 mM for each WWE domain protein. However, due to resource intensive preparation, iso-ADPr was only titrated up to 500 µM. We then plotted the Δδ chemical shifts and ligand concentrations to determine a saturation curve. For each Kd determination, the chemical shifts of at least two separate peaks were analyzed and reported as the mean with standard deviation (Table 1, Figs. S4–7).
(§2) Titration curves were calculated as previously described.
Compound hit confirmation was carried out in single compound samples using the same conditions and parameters as for compound mixtures.

Test [3] has as its target T2, TRIP12 WWE domain (isoform 2) (Homo sapiens, UniProt Q14669).
T2 construct: TRIP12-2 (Uniprot ID: Q14669, residues 759–847); His6-TEV site (N, cleaved yes); made in house; host or cells: E. coli BL21 (DE3) pRARE2
The test is described as follows: 15N-HSQC NMR Kd titration, TRIP12 WWE domain. To be noted: 15N-HSQC-NMR titration, mean of selected cross peaks ± SD.
From the text: as §1, §2

For test [4], the target named is T3, DTX2 WWE domain (Homo sapiens, UniProt Q86UW9).
T3 construct: DTX2 (Uniprot ID: Q86UW9, residues 3–189); His6-TEV site (N, cleaved yes); made in house; host or cells: E. coli BL21 (DE3) pRARE2
T3 sequence (Q86UW9 3-189): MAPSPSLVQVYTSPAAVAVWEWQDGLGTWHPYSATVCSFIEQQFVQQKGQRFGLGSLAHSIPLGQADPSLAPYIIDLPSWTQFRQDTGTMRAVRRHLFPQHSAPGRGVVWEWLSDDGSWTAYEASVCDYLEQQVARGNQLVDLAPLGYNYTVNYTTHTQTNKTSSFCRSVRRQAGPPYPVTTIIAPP
The test can be described thus: 15N-HSQC NMR Kd titration, DTX2 WWE domains. To be noted: 15N-HSQC-NMR titration, mean of selected cross peaks ± SD.
From the text: as §1, §2

The target in test [5] is T4, DTX1 WWE domain (Homo sapiens, UniProt Q86Y01).
T4 construct: DTX1 (Uniprot ID: Q86Y01, residues 21–184); His6-TEV site (N, cleaved yes); made in house; host or cells: E. coli BL21 (DE3) pRARE2
T4 sequence (Q86Y01 21-184): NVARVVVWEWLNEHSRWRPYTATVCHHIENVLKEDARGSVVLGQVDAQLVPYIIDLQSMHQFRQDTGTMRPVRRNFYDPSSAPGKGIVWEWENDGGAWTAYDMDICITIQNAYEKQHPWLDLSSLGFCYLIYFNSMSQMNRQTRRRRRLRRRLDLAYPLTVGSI
The test is described as follows: 15N-HSQC NMR Kd titration, DTX1 WWE domains. To be noted: 15N-HSQC-NMR titration, mean of selected cross peaks ± SD.
From the text: as §1, §2

Test [6] concerns the target T3, DTX2 WWE domain. The test can be described thus: 19F NMR displacement assay with 2F-ATP (1) reporter, DTX2. To be noted: 100 µM reporter, 0.5 µM protein, competitor up to 1 mM.
The target of test [7] is T5, RNF146 WWE domain (Homo sapiens, UniProt Q9NTX7).
T5 construct: RNF146 (Uniprot ID: Q9NTX7, residues 100-184); His6-TEV site (N, cleaved yes); made in house; host or cells: E. coli BL21 (DE3) pRARE2
T5 sequence (Q9NTX7 100-184): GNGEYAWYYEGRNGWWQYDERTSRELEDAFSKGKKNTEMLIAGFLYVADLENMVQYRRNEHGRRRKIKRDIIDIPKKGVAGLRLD
The test can be described thus: 15N-HSQC NMR Kd titration, RNF146 WWE domain. To be noted: 15N-HSQC-NMR titration, mean of selected cross peaks ± SD.

The structures appear in SMILES notation. Several values for one entry are separate records, joined by “and”; a condition that tells them apart may be missing. Equal values may be shown once. Entries after “also recorded” stand apart in the source; their conditions may differ. Where only a bound is given, the exact number is not on record here.

T2 sequence (Q14669 with tags, fused parts or gaps): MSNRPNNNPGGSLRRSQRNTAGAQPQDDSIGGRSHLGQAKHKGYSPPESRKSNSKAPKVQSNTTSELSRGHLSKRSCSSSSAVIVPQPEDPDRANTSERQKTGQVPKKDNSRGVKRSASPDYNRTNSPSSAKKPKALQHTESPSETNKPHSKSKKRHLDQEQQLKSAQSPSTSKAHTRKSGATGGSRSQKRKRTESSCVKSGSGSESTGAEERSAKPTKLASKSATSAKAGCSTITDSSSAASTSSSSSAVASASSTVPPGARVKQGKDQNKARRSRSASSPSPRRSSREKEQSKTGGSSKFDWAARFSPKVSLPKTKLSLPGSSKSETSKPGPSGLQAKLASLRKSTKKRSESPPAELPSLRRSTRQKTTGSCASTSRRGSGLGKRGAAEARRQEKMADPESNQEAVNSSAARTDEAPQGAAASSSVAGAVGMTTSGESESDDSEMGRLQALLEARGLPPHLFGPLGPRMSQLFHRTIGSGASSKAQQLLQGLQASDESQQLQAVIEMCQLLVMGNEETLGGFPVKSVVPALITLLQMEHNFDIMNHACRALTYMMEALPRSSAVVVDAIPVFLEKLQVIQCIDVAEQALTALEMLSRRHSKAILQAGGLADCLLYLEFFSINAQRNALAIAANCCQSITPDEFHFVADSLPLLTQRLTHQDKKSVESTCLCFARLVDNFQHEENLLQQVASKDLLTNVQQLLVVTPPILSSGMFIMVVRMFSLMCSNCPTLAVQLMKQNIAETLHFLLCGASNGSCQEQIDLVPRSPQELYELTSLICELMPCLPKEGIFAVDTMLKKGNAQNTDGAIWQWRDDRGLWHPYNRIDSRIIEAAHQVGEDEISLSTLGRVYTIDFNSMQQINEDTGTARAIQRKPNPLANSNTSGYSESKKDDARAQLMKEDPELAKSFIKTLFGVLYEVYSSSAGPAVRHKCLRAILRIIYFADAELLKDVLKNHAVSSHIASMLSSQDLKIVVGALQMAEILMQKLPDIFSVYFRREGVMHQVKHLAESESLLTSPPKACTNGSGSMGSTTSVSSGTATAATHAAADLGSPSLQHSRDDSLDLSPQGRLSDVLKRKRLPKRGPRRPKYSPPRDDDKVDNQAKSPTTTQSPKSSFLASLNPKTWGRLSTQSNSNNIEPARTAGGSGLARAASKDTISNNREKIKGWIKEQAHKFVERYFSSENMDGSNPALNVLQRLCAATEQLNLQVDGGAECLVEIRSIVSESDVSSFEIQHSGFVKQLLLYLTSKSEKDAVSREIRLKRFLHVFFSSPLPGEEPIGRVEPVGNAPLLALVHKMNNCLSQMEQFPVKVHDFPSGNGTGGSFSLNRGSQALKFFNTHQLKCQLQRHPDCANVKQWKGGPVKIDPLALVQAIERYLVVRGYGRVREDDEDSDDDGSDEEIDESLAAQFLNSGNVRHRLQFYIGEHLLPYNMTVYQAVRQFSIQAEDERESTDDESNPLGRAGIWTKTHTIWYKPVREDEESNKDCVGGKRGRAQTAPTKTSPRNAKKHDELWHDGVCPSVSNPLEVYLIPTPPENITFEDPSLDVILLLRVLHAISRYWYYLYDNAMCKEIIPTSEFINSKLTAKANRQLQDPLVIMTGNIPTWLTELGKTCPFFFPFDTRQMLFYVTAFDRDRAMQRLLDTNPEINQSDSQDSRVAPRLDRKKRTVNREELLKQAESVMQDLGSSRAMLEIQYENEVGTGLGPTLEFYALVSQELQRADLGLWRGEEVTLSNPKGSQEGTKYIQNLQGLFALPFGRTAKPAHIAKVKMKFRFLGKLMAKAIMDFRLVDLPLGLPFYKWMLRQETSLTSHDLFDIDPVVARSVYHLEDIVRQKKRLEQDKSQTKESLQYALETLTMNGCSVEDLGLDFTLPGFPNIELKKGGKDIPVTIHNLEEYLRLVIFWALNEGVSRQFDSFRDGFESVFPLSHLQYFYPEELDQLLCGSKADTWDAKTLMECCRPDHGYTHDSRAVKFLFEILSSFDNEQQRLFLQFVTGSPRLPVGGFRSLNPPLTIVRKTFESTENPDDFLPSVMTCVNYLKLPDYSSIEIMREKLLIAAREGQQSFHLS

For orientation: Kd means the concentration at which binding is half-saturated. Read a low Kd as a tighter complex. For `O=C(O)CN1C(=O)c2ccccc2C1=O` [compound (3), N-(Carboxymethyl)-phthalimide], the “displacement of 19F reporter 2F-ATP (1)” value in test [1] is “no displacement”. The molecule also gave a Kd in test [2] of 1760 µM.
Take `O=C(O)CN1C(=O)c2ccc(C(=O)O)cc2C1=O` [compound (4)]: the “displacement of 19F reporter 2F-ATP (1)” value in test [1] is on record as “clear dose-dependent displacement; also recorded: showed displacement”. In test [2], the Kd was 202 µM.
As to `Nc1ncnc2c1ncn2[C@@H]1O[C@H](COP(=O)(O)OP(=O)(O)OP(=O)(O)O)[C@@H](O)[C@H]1O` [ATP], the Kd in test [3] was 316 ± 22 µM; in test [4], 802 ± 84 µM; in test [5] it was 659 ± 294 µM; in test [2] it was 59 ± 5 µM. The “displacement of 19F reporter 2F-ATP (1)” value in test [1] was “increasing signal intensity”; in test [6], “too weak for displacement”.
Turning to `Nc1nc(F)nc2c1ncn2[C@@H]1O[C@H](COP(=O)(O)OP(=O)(O)OP(=O)(O)O)[C@@H](O)[C@H]1O` [2F-ATP 1], the Kd in test [3] was 127 ± 9 µM; in test [7], 49 ± 18 µM; in test [4], > 2000 µM; in test [5], 329 ± 115 µM; in test [2], 30 µM and 27 µM.
Regarding `Nc1ncnc2c1ncn2[C@@H]1O[C@H](COP(=O)(O)OP(=O)(O)OP(=O)(O)O)[C@@H](O)[C@H]1F` [2’F-ATP 2], the Kd in test [3] was determined as 125 ± 20 µM; in test [7], 114 ± 31 µM; in test [4], 455 ± 17 µM; in test [5], 550 ± 111 µM; in test [2] it was 15 ± 2 µM.

The record behind these values is publication PMC11269756, “A ligand discovery toolbox for the WWE domain family of human E3 ligases” (Communications Biology, 2024).
